Measurements: US20230128137A1, “BENZO FIVE-MEMBERED CYCLIC COMPOUND” (MEDSHINE DISCOVERY INC., priority 2020, published 2023)
Read-outs that look alike come from different tables or passages of the source.

Legend:
[1] = Liver microsome metabolic stability in vitro, SD rat; format: in vitro ADME; settings: SD rat liver microsomes
Experimental: (§1) 3.2 preparation of nicotinamide adenine dinucleotide phosphate cofactor solution: an appropriate amount of NADPH powder was weighed and diluted into 10 mM magnesium chloride solution (working solution concentration: 10 unit/mL; final concentration of reaction system: 1 unit/mL);
(§2) 3.3 preparation of liver microsomes: an appropriate concentration working solution of liver microsomes (human, SD rat, CD-1 mouse, beagle dog) was prepared in 100 mM potassium phosphate buffer;
(§3) 3.4 preparation of quenching solution: cold (4° C.) acetonitrile containing 200 ng/mL tolbutamide and 200 ng/mL labetalol as internal standard (IS) was used as quenching solution;
(§4) 3.5 experimental operation:
(§5) a. empty “incubation” plates T60 and NCF60 were preheated for 10 minutes;
(§6) b. the liver microsomes were diluted to 0.56 mg/mL with 100 mM phosphate buffer;
(§7) c. 445 μL of microsomal working solution (0.56 mg/mL) was transferred to the preheated “incubation” plates T60 and NCF60, and then the“incubation” plates T60 and NCF60 were preincubated for 10 min with continuous shaking at 37° C. 54 μL of liver microsomes were transferred to a blank plate, and 6 μL of NAPDH cofactor was added to the blank plate, and then 180 μL of quenching solution was added thereto;
(§8) e. for NCF60 plate, 50 μL of buffer was added thereto and the mixture was fully mixed for three times. Timing was started; the plate was shaken at 37° C. for 60 minutes;
(§9) f. in “quenching” plate TO, 180 μL of quenching solution and 6 μL of NAPDH cofactor were addded to make sure that the plate was cooled down to prevent evaporation;
(§10) g. for T60 plates, the mixture was fully mixed for three times, and 54 μL of mixture was immediately transferred to the “quenching” plate at the 0 min time point. 44 μL of NAPDH cofactor was then added to the culture plate (T60). Timing was started; the plate was shaken at 37° C. for 60 minutes;
(§11) h. at 5, 10, 20, 30 and 60 min, 180 μL of quenching solution was added to the “quenching” plate, and the mixture was mixed for one time, and 60 μL of sample was continuously transferred from the T60 plate to the “quenching” plate at each time point;
(§12) i. for NCF60: the mixture was mixed for one time, and 60 μL of sample was transferred from the NCF60 culture dish to the “quenching” plate containing quenching solution at 60 minutes time point;
(§13) j. all sampling plates were shaked for 10 minutes, then centrifuged at 4000 rpm for 20 minutes at 4° C.;
(§14) k. 60 μL of supernatant was transferred into 180 μL of HPLC water and stirred with a plate shaker for 10 min;
(§15) 1. before LC-MS/MS analysis, each bioanalysis plate was sealed and shaked for 10 minutes.

[2] = Liver microsome metabolic stability in vitro, beagle dog; format: in vitro ADME; settings: beagle dog liver microsomes
Experimental: as §1, §2, §3, §4, §5, §6, §7, §8, §9, §10, §11, §12, §13, §14, §15

[3] = In vivo pharmacokinetic property evaluation in CD-1 mice (IV and PO); settings: mouse, plasma; for MRT last: read-out: MRT0-last
Experimental: The in vivo pharmacokinetic properties of compound 2 were evaluated in CD-1 mice by intravenous administration and oral administration. IV (intravenous injection) refers to slow administration in jugular vein, and PO (oral administration) refers to administration by gavage. Formulations for intravenous and gavage administration were both 2.5% dimethylsulfoxide, 5% ethanol, 10% cremophor EL, 20% glucose solution (concentration of 5%), 62.5% water. PK time points in the intravenous injection group were 5 min, 15 min, 30 min, 1 h, 2 h, 4 h, 8 h, 12 h and 24 h after administration, respectively, and PK time points in the gastric administration group were 15 min, 30 min, 1 h, 2 h, 4 h, 8 h and 24 h after administration, respectively. Approximately 0.03 mL of blood was collected at each time point. Blood from each sample was transferred to a plastic microcentrifuge tube containing EDTA-K2, centrifuged at 4000 rpm for 5 min in a 4° C. centrifuge, and plasma was collected within 15 min, and the plasma samples were stored in polypropylene tubes. Before the test, samples were stored in a refrigerator at −75±15° C. The concentration of compounds in plasma samples was analyzed using the LCMS/MS method and the following pharmacokinetic parameters were calculated using WinNonlin software (Phoenix™, version 6.1): IV: C0, Cl, Vd, T1/2, AUC0-last, MRT0-last, regression points; PO: Cmax, Tmax, T1/2, AUC0-last, MRT0-last, regression points. Pharmacokinetic data were described using descriptive statistics, such as mean, standard deviation.

[4] = Liver microsome metabolic stability in vitro, CD-1 mouse; format: in vitro ADME; settings: CD-1 mouse liver microsomes
Experimental: as §1, §2, §3, §4, §5, §6, §7, §8, §9, §10, §11, §12, §13, §14, §15

[5] = Liver microsome metabolic stability in vitro, human; format: in vitro ADME; settings: human liver microsomes
Experimental: as §1, §2, §3, §4, §5, §6, §7, §8, §9, §10, §11, §12, §13, §14, §15

RS4;11 cells = experiment: CTG (CellTiter-Glo) test of inhibition of RS4;11 cell proliferation; format: cell-based; settings: Homo sapiens, 72 hours incubation
Experimental: 2.1 Experimental objectives: To obtain the IC50 value of the test compound in RS4;11 cell lines;
2.2 incubation time: 72 hours;
2.3 experimental method: CTG (Cell Titer-Glo™ Luminescent Cell Viability Assay);
a. when the cells were fused to 80%, the cells were collected and counted;
b. RS4; 11 cell suspension was diluted to 5000 cells/well and 20 uls of cell suspension was seeded in each well of 384-well plate;
c. the cell plates were placed back to 37° C. and incubated in a 5% carbon dioxide incubator for 24 hours;
d. the test compound was prepared into DMSO solution, and 5 μL of each was added to the designated well of the test plate, and the final concentration of DMSO solution was 0.5%;
e. initiation cell viability was detected by CTG;
f. the test plate was put back into the incubator and incubated for another 72 hours;
g. after 72 hours incubation, CellTiter-Glo™ luminescent cell viability assay was completed according to the manufacturer's manual;

## CC1(C)CCC(CN2CCN(c3ccc(C(=O)NS(=O)(=O)c4cc([N+](=O)[O-])c(NCC5CCOCC5)c5[nH]cnc45)c(Oc4cnc5[nH]ccc5c4)c3)CC2)=C(c2ccc(Cl)cc2)C1 [Compound 2]
[1]
  CLint scaled at 1 µM: 23.6 mL/min/kg
  half-life at 1 µM: 1.76 h
[1]; 60 min incubation
  Remaining (T = 60 min): 64.1%
[2]
  CLint scaled at 1 µM: 26.8 mL/min/kg
  half-life at 1 µM: 1.24 h
[2]; 60 min incubation
  Remaining (T = 60 min): 52%
[3]; 1 mg/kg, IV, 1 mpk
  AUC(0-t): 1.8 µM·h
  C0: 11.7 µM
  clearance: 10.2 mL/min/kg
  half-life: 3.35 h
  MRT last: 1.21 h
[3]; 1 mg/kg, IV, 1 mpk, read-out: Vdss
  Vd: 0.834 L/kg
[3]; 50 mg/kg, PO, 50 mpk
  AUC(0-t): 12.8 µM·h
  Cmax: 1.79 µM
  Tmax: 3 h
  half-life: 4.1 h
  MRT last: 6.22 h
[4]
  CLint scaled at 1 µM: 79.7 mL/min/kg
  half-life at 1 µM: 1.15 h
[4]; 60 min incubation
  Remaining (T = 60 min): 54.6%
[5]; 60 min incubation
  Remaining (T = 60 min): 45.6%
[5]; human
  CLint scaled at 1 µM: 23.9 mL/min/kg
  half-life at 1 µM: 0.87 h
RS4;11 cells
  IC50: 2.7 nM
